Test results as given in US20080078408A1, “URETHRAL CONDOMS AND LIQUID FEMALE CONDOMS” (priority 2005, published 2008).

Legend:
[1] = system: sperms; assay: Spermicidal test: semen on a slide glass mixed with a drop of liquid, observed with an optical microscope; assay type: cell-based
Text: The present inventor discovered a surprising fact for the first time that distilled water is an excellent spermicide.
EXPERIMENT 1: The fact that distilled water is an excellent spermicide was proven experimentally as follows: (1) One drop of semen was spread on a slide glass with a cotton swab and active movements of sperms were confirmed. (2) Upon mixing with a drop of distilled water, 100% of sperms stood still immediately. […] All sperms might be dead by explosive expansion of the sperm cell. While not wishing to be bound by any particular theory, the inventor believes that this is due to a lot of water smeared into the cell due to the difference in osmotic pressure between the cell and distilled water.
(3) Upon decreasing the viscosity by adding several drops of saline solution, the sperms regained their original activity.
EXPERIMENT 4: The fact that polymer solutions made from distilled water and water-soluble polymers exterminated sperms was verified experimentally as follows: (1) One drop of semen was spread on a slide glass with a cotton swab and active movements of sperms were confirmed. (2) Upon mixing with a drop of water-soluble polymer solution, all sperms came to a standstill without any movement in their heads or tails. […]

[2] = Physical blocking wall test: pigments and dye rubbed on coated, incised swine vaginal segments, then rinsed and scrubbed
Text: EXPERIMENT 6: Two pigments whose particle size distributions correspond to sizes of STD-causing germs including HIV (diameter=125 nm) were chosen. The blue pigment (PIG-1) had the particle size distribution of 100-20,000 nm, while the violet pigment (PIG-2) had the particle size distribution of 30-500 nm. For the purpose of comparison, a blue dye ink (DYE) (molecular diameter=2.7 nm) was used as well. Instead of the human vagina, the swine vagina was used. […] Then, the vaginal segments in the left column were wetted with water, while those in the second, the third, the fourth and the fifth column were applied with corn syrup (SYRUP, 55% maltose), a composition made from polyvinyl alcohol (PVA-gel), a composition made from sodium carboxymethyl cellulose (SCMC-gel) and a composition made from hydroxyethyl cellulose (HEC-gel), respectively, as shown in FIG. 2B. After that, the blue pigment (PIG-1) was applied on the vaginal segments in the upper row, while the violet pigment (PIG-2) and the blue dye ink (DYE) were applied on the vaginal segments in the middle and the lower row, respectively, as shown in FIG. 2C. The pigments and the dye ink applied on the vaginal segments were rubbed 50 times violently with the index finger being pressed in an attempt to simulate the frictional movement of coitus. Thereafter that, they were scrubbed off and cleansed out with the vaginal scrubbing sponge of the present invention as shown in FIG. 6.

Row | SMILES | sperm activity upon later addition of saline solution ([1]; saline solution added after mixing with the liquid) | sperms stood still immediately upon mixing ([1]; semen on slide glass mixed with drop(s) of the liquid) [%] | pigments left on incisions ([2]; incisions, after rinsing and scrubbing) | blue dye ink (molecular diameter 2.7 nm) left after being rinsed and scrubbed ([2]; intact vaginal surfaces and incisions) | pigments (PIG-1, PIG-2; 30-20,000 nm) left on vaginal segments after rinsing ([2]; intact vaginal surfaces and incisions, rubbed 50 times, rinsed with running water, then scrubbed)
1 | O [distilled water] | failed to show any activity | 100 |  |  | 
2 | O [water] |  |  | remained heavily | remained heavily | still remained
